The values that follow come from patent US12227490B2, “Cereblon binding compounds, compositions thereof, and methods of treatment therewith” (Celgene Corporation, priority 2020, dated 2025).

Counter-ions that a name gives are not always drawn.

The target in the test is T1, AR (androgen receptor) protein in VCaP cells (Homo sapiens, UniProt P10275).
T1 construct: endogenous in cells; host or cells: VCaP cells
T1 sequence (P10275 1-920): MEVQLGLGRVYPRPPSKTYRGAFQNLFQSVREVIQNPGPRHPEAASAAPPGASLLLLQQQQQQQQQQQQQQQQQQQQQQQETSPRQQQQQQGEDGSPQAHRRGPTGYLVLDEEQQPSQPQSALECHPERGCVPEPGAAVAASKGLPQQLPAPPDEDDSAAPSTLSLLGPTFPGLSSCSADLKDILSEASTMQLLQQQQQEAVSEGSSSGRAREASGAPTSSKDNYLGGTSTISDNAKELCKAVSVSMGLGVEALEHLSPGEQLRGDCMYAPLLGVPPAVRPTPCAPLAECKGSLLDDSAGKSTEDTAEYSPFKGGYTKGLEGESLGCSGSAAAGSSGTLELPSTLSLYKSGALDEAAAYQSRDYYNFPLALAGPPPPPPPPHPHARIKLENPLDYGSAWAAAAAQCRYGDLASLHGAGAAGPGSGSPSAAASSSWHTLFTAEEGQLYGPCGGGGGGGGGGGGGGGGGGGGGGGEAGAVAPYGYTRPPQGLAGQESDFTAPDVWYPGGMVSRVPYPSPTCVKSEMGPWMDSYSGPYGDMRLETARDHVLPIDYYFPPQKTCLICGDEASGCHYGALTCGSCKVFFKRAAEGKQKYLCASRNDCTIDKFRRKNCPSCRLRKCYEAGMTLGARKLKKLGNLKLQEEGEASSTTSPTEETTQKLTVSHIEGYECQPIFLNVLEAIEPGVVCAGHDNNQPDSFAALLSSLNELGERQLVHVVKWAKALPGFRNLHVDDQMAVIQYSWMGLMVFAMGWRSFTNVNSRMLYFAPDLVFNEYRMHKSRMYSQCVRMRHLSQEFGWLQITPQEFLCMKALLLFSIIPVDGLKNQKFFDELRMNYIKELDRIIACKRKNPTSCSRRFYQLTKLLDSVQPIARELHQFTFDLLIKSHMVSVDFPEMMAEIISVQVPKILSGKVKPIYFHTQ
The test is described as follows: VCAP AR Degradation Assay. In kind it is cell-based. The note with it: 24 h, AR ELISA; for DC50: concentration of compound when AR level = 50% of DMSO control; for remaining activity at up to 5 µM: top concentration 5 μM, read-out: Y (lowest measured AR level normalized to DMSO control, AR degradation efficiency). As to the method: VCAP AR Degradation Assay. Test compounds were pre-dispensed into a Corning CellBind 96-well clear bottom plate (Cat #3300) using an acoustic dispenser to make a 10-point concentration series at 1:3 dilution for each compound. The final top concentration of each compound was 5 μM. DMSO at a final concentration of 0.1% was used as a control. VCaP cells cultured in DMEM with 8% fetal bovine serum (FBS) were seeded at 50K cells per well in a 200 μL volume into the compound plate and incubated at 37° C. in a CO2 incubator for 24 h. The medium was carefully removed from the cells and the plate was placed on ice. One hundred μL of ice-cold 1× cell lysis buffer from Cell Signaling Technologies (Cat #9803) was added to each well of the cells and the plate was incubated at 4° C. on a shaker for 1 h. Fifteen μL of cell lysate was used for AR ELISA detection using a PathScan Total Sandwich AR ELISA kit (Cell Signaling Technology, Cat #12580). AR levels in compound-treated wells were normalized to that of DMSO control and expressed as percent of control (PoC) (y). A Four Parameter Logistic Model (Sigmoidal Dose-Response Model) was used to determine the compound's DC50, and EC50, using the following equation: y=(A+((B−A)/(1+((C/x)^D)))) • A=YMin (lowest AR level normalized to DMSO control in response to compound treatment, as determined by curve fit) • B=YMax (maximum AR level as determined by curve fit) • C=EC50 • D=Hill Slope • x=compound concentration • EC50=the concentration of compound when y=(YMax−YMin)/2 • DC50=the concentration of the compound when y=50% of DMSO control (50% AR degradation) • y=AR protein level normalized to DMSO control
The lowest measured AR level normalized to DMSO control in response to compound treatment, termed Y value, was used to characterize the compound-mediated AR degradation efficiency.
In general terms: In an ELISA, binding on a coated surface is turned into a signal by an enzyme label.

Turning to `Cn1nc(C2CCC(=O)NC2=O)c2cccc(NC(=O)CN3CCN(CCC[C@H]4CC[C@H](N5C(=S)N(c6cnc(C#N)c(C(F)(F)F)c6)C(=O)C5(C)C)CC4)C[C@@H]3C(F)(F)F)c21` (stereo partly drawn) [Cmpd 17, 2-((R)-4-(3-((trans)-4-(3-(6-Cyano-5-(trifluoromethyl)pyridin-3-yl)-5,5-dimethyl-4-oxo-2-thioxoimidazolidin-1-yl)cyclohexyl)propyl)-2-(trifluoromethyl)piperazin-1-yl)-N-(3-(2,6-dioxopiperidin-3-yl)-1-methyl-1H-indazol-7-yl)acetamide], the DC50 (as a rule, the midpoint of the concentration-degradation curve) fell in the range of 2 to 5 nM and the remaining activity at up to 5 µM is 0 to 25%.
On the same counts, the results for `C[C@@H]1CN(CCO[C@H]2CC[C@H](N3C(=S)N(c4cnc(C#N)c(C(F)(F)F)c4)C(=O)C3(C)C)CC2)C[C@H](C)N1CC(=O)Nc1cccc2c(C3CCC(=O)NC3=O)nn(C)c12` (stereo partly drawn) [Cmpd 4, 2-((2R,6S)-4-(2-((trans-4-(3-(6-Cyano-5-(trifluoromethyl)pyridin-3-yl)-5,5-dimethyl-4-oxo-2-thioxoimidazolidin-1-yl)cyclohexyl)oxy)ethyl)-2,6-dimethylpiperazin-1-yl)-N-(3-(2,6-dioxopiperidin-3-yl)-1-methyl-1H-indazol-7-yl)acetamide hydrochloride] are below 2 nM and 25 to 30%.
In the same order, the values of `C[C@@H]1C[C@H](OCC[C@H]2CC[C@H](N3C(=S)N(c4cnc(C#N)c(C(F)(F)F)c4)C(=O)C3(C)C)CC2)C[C@H](C)N1CC(=O)Nc1cccc2c(C3CCC(=O)NC3=O)nn(C)c12` (stereo partly drawn) [Cmpd 25, 2-((2R,4r,6S)-4-(2-((trans)-4-(3-(6-Cyano-5-(trifluoromethyl)pyridin-3-yl)-5,5-dimethyl-4-oxo-2-thioxoimidazolidin-1-yl)cyclohexyl)ethoxy)-2,6-dimethylpiperidin-1-yl)-N-(3-(2,6-dioxopiperidin-3-yl)-1-methyl-1H-indazol-7-yl)acetamide] are 2 to 5 nM and 0 to 25%.
On the same counts, the results for `Cn1nc(C2CCC(=O)NC2=O)c2cccc(NC(=O)CN3CCN(CCC[C@H]4CC[C@H](N5C(=S)N(c6ccc(C#N)c(C(F)(F)F)c6)C(=O)C5(C)C)CC4)C[C@@H]3C(F)(F)F)c21` (stereo partly drawn) [Cmpd 18, 2-((R)-4-(3-((trans)-4-(3-(4-Cyano-3-(trifluoromethyl)phenyl)-5,5-dimethyl-4-oxo-2-thioxoimidazolidin-1-yl)cyclohexyl)propyl)-2-(trifluoromethyl)piperazin-1-yl)-N-(3-(2,6-dioxopiperidin-3-yl)-1-methyl-1H-indazol-7-yl)acetamide] are 5 to 20 nM and 25 to 30%.
In the case of `C[C@@H]1CN(CCO[C@H]2CC[C@H](N3C(=S)N(c4ccc(C#N)c(Cl)c4)C(=O)C3(C)C)CC2)C[C@H](C)N1CC(=O)Nc1cccc2c(C3CCC(=O)NC3=O)nn(C)c12` (stereo partly drawn) [Cmpd 3, 2-((2R,6S)-4-(2-((trans-4-(3-(3-Chloro-4-cyanophenyl)-5,5-dimethyl-4-oxo-2-thioxoimidazolidin-1-yl)cyclohexyl)oxy)ethyl)-2,6-dimethylpiperazin-1-yl)-N-(3-(2,6-dioxopiperidin-3-yl)-1-methyl-1H-indazol-7-yl)acetamide hydrochloride], the DC50 was below 2 nM and the remaining activity at up to 5 µM lay in the range of 0 to 25%.
In the same order, the values of `C[C@@H]1CN(CCC[C@H]2CC[C@H](N3C(=S)N(c4ccc(C#N)c(C(F)(F)F)c4)C(=O)C3(C)C)CC2)C[C@H](C)N1CC(=O)Nc1cccc2c(C3CCC(=O)NC3=O)nn(C)c12` (stereo partly drawn) [Cmpd 2, 2-((2R,6S)-4-(3-(trans-4-(3-(4-cyano-3-(trifluoromethyl)phenyl)-5,5-dimethyl-4-oxo-2-thioxoimidazolidin-1-yl)cyclohexyl)propyl)-2,6-dimethylpiperazin-1-yl)-N-(3-(2,6-dioxopiperidin-3-yl)-1-methyl-1H-indazol-7-yl)acetamide hydrochloride] are 2 to 5 nM and 30 to 50%.
In the case of `C[C@@H]1CN(CCC[C@H]2CC[C@H](N3C(=S)N(c4ccc(C#N)c(Cl)c4)C(=O)C3(C)C)CC2)C[C@H](C)N1CC(=O)Nc1cccc2c(C3CCC(=O)NC3=O)nn(C)c12` (stereo partly drawn) [Cmpd 11, 2-((2S,6R)-4-(3-(trans-4-(3-(3-Chloro-4-cyanophenyl)-5,5-dimethyl-4-oxo-2-thioxoimidazolidin-1-yl)cyclohexyl)propyl)-2,6-dimethylpiperazin-1-yl)-N-(3-(2,6-dioxopiperidin-3-yl)-1-methyl-1H-indazol-7-yl)acetamide], the DC50 is 5 to 20 nM and the remaining activity at up to 5 µM fell in the range of 30 to 50%.
